Measurements taken from US10745663B2, “Methods for modulating production profiles of recombinant proteins” (ARES TRADING S.A., priority 2015, dated 2020).
Like-named read-outs stand apart in the source and are kept apart here.

What was measured:
[1] = test system: recombinant CHO cells; settings: batch culture, end of the production run (after 8 days of culture); cited from earlier work
[2] = test system: recombinant CHO cells; settings: perfusion batch culture, within 6 days of treatment; cited from earlier work
[3] = test system: CHO-S cells expressing IgG1 mAb1; test: Fed-batch cell culture in microplates, cells expressing mAb1, with DIDS; format: cell-based, Chinese hamster
Protocol: (§1) Assays were performed with 2 CHO cell lines: • CHO-S cells expressing IgG1 mAb1, herein “Cells mAb1” or “mAb1 cells”. “mAb1” is a fully human monoclonal antibody directed against a soluble protein. Its isoelectric point (pI) is about 8.20-8.30. • CHO-K1 cells expressing IgG1 mAb2, herein “Cells mAb2” or “mAb2 cells”. “mAb2” is a humanised monoclonal antibody directed against a receptor found on the cell membrane. Its isoelectric point (pI) is about 9.30.
(§2) Cells expressing mAb2 were inoculated at 0.2×10^6 cells per milliliter (mL), whereas cells expressing mAb1 were inoculated at 0.3×10^6 cells per mL.
(§3) All assays were performed in fed-batch culture. The host cells were cultured in fed-batch system either in microplates (“Deep well plate”) or in Spin Tubes®, and incubated at 36.5° C., 90% relative humidity, 5% CO2 and 320 rpm shaking during 14 days.
(§4) Viable cell density and viability were measured with the Guava easyCyte® flow cytometer or with the ViCell.
(§5) Antibody titres were measured either with the fortéBIO Octet® or with Biacore C®.
(§6) Glycosylation profiles were established by capillary gel electrophoresis with laser-induced fluorescence (CGE-LIF). Dosages of aggregates and fragments were performed respectively via Size Exclusion High Performance Liquid Chromatography (SE-HPLC) and via SDS-capillary gel electrophoresis.
The host cells expressing the antibody mAb1 were cultured in presence of DIDS at concentrations ranging from 0.4 μM to 83 μM. The cell density and the viability were measured during the culture, whereas the titre was measured on day 14 (FIGS. 1A-1C). Addition of DIDS in the culture medium allowed increase of viable cell density and the titre. Specifically the concentration of 83 μM of DIDS allowed to double the cell density at day 7 (WD7) and to multiply the titre by factor 1.4 at the end of the culture process at day 14 (WD14). The viability was maintained, compared to the control, until day 12.

[4] = test system: CHO-K1 cells expressing IgG1 mAb2; format: cell-based, Chinese hamster
Protocol: as §1, §2, §3, §4, §5, §6
(§7) The efficacy of DIDS was also tested in Spin tubes at concentrations around 40 μM (41 μM) and/or around 85 μM (82 μM for mAb1 and 87 μM for mAb2). These concentrations are not toxic for the host cells expressing the antibodies mAb1 and mAb2 and allowed to obtain an important increase of the cell density and the titre of the antibody mAb1 (FIG. 3). As expected for the cells expressing the antibody mAb1, the viable cell density and the specific production increase in the presence of DIDS, which allowed at DIDS concentration of 82 μM to multiply the titre by factor 1.4 comparing to the control (FIGS. 3A-3D). […] Similar results are observed for mAb2: DIDS allowed the increase of the specific productivity of the host cells expressing the antibodies mAb2 (about 20% increase at day 10), and is able to maintain the viability of the cells for about 10 days (FIGS. 3E-H).

[5] = test system: CHO-S cells expressing IgG1 mAb1; format: cell-based, Chinese hamster; settings: Spin tubes
Protocol: as §1, §2, §3, §4, §5, §6, §7

[6] = in the presence of DIDS (41 μM, 82 μM)

Row | Compound | cell viability [1] | cell viability [2] | cell density ([3]; 83 μM DIDS, day 7 (WD7), microplates, versus control) | titre multiplied by factor ([3]; 83 μM DIDS, end of culture day 14 (WD14), microplates, versus control) | viability ([3]; compared to the control, until day 12, DIDS 0.4 μM to 83 μM) | toxicity for the host cells expressing mAb2 ([4]; DIDS around 40 μM (41 μM) and/or 87 μM, Spin tubes) | time for which viability of the cells is maintained ([4]; Spin tubes, mAb2 cells) | increase of the specific productivity ([4]; day 10, Spin tubes, mAb2 cells) | titre multiplied by factor ([5]; 82 μM DIDS, comparing to the control) | toxicity for the host cells expressing mAb1 ([5]; DIDS 41 μM and 82 μM) | specific production [5, 6] | viable cell density [5, 6]
1 | CCCC(=O)[O-].[Na+] [sodium butyrate] | less than 45% | 15% |  |  |  |  |  |  |  |  |  | 
2 | O=S(=O)([O-])c1cc(N=C=S)ccc1/C=C/c1ccc(N=C=S)cc1S(=O)(=O)[O-].[Na+].[Na+] [DIDS, 4,4′-diisothiocyanostilbene-2,2′-disulfonic acid] |  |  | double | 1.4 | maintained | not toxic | about 10 days | about 20% | 1.4 | not toxic | increase | increase
